Measurements: paper PMC12292504, “Improving Cofactor Promiscuity of HMG-CoA Reductase from Ruegeria pomeroyi Through Rational Design” (Biomolecules, 2025)

Biological target: T1, rpHMGR (Ruegeria pomeroyi, UniProt Q5LL64, D154K)
T1 construct: gene mvaA; N-terminal 6xHis-tag (pET28a-rpHMGR(N)), codon-optimised synthetic gene, E. coli BL21(DE3), Ni-NTA purified; homodimer only by model
Test: NADPH consumption followed at […] nm (reductive deacylation of HMG-CoA)
Assay type: biochemical
Details: 0.5 mM NADPH, 0.5 mM (R,S)-HMG-CoA, 50 mM Tris-HCl, 50 mM NaCl, 5 mM DTT, pH 7.5, 30 °C

T1 sequence (Q5LL64 entry or part of it D154K): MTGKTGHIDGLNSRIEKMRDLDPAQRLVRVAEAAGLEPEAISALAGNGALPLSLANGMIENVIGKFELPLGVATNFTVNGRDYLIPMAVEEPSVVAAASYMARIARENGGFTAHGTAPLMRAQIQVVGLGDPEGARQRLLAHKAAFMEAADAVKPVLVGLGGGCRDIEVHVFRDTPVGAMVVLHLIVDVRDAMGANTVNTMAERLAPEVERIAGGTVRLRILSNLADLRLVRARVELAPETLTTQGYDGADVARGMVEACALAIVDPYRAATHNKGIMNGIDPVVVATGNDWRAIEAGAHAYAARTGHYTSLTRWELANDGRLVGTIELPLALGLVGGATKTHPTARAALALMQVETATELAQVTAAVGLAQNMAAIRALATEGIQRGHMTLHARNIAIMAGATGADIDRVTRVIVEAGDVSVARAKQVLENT

NC(=O)C1=CN([C@@H]2O[C@H](COP(=O)(O)OP(=O)(O)OC[C@H]3O[C@@H](n4cnc5c(N)ncnc54)[C@H](OP(=O)(O)O)[C@@H]3O)[C@@H](O)[C@H]2O)C=CC1 [NADPH]
specific activity: D154K mutant exhibited a significantly improved ability to utilize NADPH
